Data as given in patent US20210308034A1, “PREBIOTIC COMPOSITIONS AND METHODS FOR MAINTAINING A HEALTHY SKIN MICROBIOTA” (KIMBERLY-CLARK WORLDWIDE, INC., priority 2018, published 2021).

Legend:
Type in all cases: cell-based
[1] = system: Klebsiella pneumoniae (ATCC BAA-2146); details: Pathogenic; carbon microarray plate, OD 600 nm, 36 hr, 33° C.; positive = more than 0.05 OD units above zero; blank cell = not utilized
Source text: (§1) After creating desired ratios of various commensal skin bacteria in a healthy skin microbiome, 188 different carbohydrate sources were screened as the next step in determining potential prospects for skin microbiota balancing agents. The screening process was set up to determine which carbohydrate sources promoted commensal and/or pathogenic bacteria as well as to obtain individual and combinations of carbohydrate sources that could serve as microbiota balancing agents that can support or maintain the healthy proportions of commensal skin bacteria of Corynebacterium, Staphylococcus, and Micrococcus. The screening was conducted utilizing Biolog phenotype microarray plates (Hayward, Calif.). Table 1 provides a coded list of the commensal and pathogenic skin bacteria that the carbohydrates were screened against.
Table 2 provides the results of screening various carbohydrate sources against the commensal and pathogenic bacteria codes listed in Table 1. The Bacteria Codes B, D, E, I, and J are commensal bacteria and are shaded in Table 2 for references purposes. The bacteria codes were each placed in a carbon microarray plate and screened through the Carbohydrate Screening Test Method, as described in the Test Methods section herein. If a particular bacteria code utilized a specific carbohydrate source as described in the Carbohydrate Screening Test Method, then the corresponding cell in Table 2 was marked with a Y (short for “Yes”). […] Many of the carbohydrate sources were utilized by both commensal and pathogenic bacteria, and as such, would not provide an advantage for selective growth of the commensal bacteria. However, some of the carbohydrate sources were only used by commensal bacteria and were identified for further testing as described herein.
(§2) The study employed 10 representative skin bacteria; Staphylococcus epidermidis ATCC 14990, Staphylococcus epidermidis M23864:W2, Staphylococcus aureus ATCC 6538, Staphylococcus aureus ATCC 25904 (Newman), Pseudomonas aeruginosa ATCC 9027, Micrococcus luteus ATCC […], Micrococcus luteus SK58, Klebsiella pneumoniae ATCC BAA-2146, Corynebacterium amycolatum SK46, and Corynebacterium minutissimum ATCC 23348. Cultures were started from freezer bead stocks by placing a single bead into 20 mL of tryptic soy broth (TSB) for all organisms except C. amycolatum SK46 and C. minutissimum ATCC 23348, which were placed into brain heart infusion (BHI) broth. Cultures were grown for about 24 hr at 37° C. except M. luteus ATCC 49732 and M. luteus SK58, which were grown at 30° C. A passage of the culture was made using a sterile swab and streaked onto two M9*2 agar plates to prepare the incubated culture for the phenotype microarray pate according to Table 4. Plates were incubated for about 24 hr at 37° C. except for M. luteus ATCC 49732 and M. luteus SK58, which were incubated at 30° C. for 24 hr.
(§3) All cultures were harvested and washed before inoculation into the carbon microarray plate (BiOLOG, Hayward Calif.), with Biolog Plates PM1 and PM2 each having a source definition of Carbon. The bacteria on the M9*2 agar was suspended via agitation with an inoculating loop in 1 mL of M9*1 media for collection in a 1.7 mL micro centrifuge tube, as noted in Table 4. The bacteria was suspended again in M9*1 media, agitated, and collected into the same 1.7 mL microcentrifuge tube used in the previous step. The tube was centrifuged for 5 minutes at 4,000×G, supernatant decanted, the pellet was resuspended in 1 mL of M9*1 media, and vortex. This washing process was repeated for a total of 4 times.
A tenfold dilution in M9*1 media was performed using 1 mL of the washed bacterial culture. Of the tenfold dilution 200 μL was placed in an untreated 96-well plate (Falcon, Pasadena Tx.) for an initial optical density (OD) reading at a wavelength of 600 nm. The OD was used to correlate to colony forming units (CFU) per milliliter by using linear regression lines for each organism. […]

[2] = system: Pseudomonas aeruginosa (ATCC 9027); details: Pathogenic; carbon microarray plate, OD 600 nm, 36 hr, 33° C.; positive = more than 0.05 OD units above zero; blank cell = not utilized
Source text: as §1
(§4) The Bacteria Codes B, D, E, I, and J are commensal bacteria and are shaded in Table 2 for references purposes. The bacteria codes were each placed in a carbon microarray plate and screened through the Carbohydrate Screening Test Method, as described in the Test Methods section herein. If a particular bacteria code utilized a specific carbohydrate source as described in the Carbohydrate Screening Test Method, then the corresponding cell in Table 2 was marked with a Y (short for “Yes”).
as §2, §3
A tenfold dilution in M9*1 media was performed using 1 mL of the washed bacterial culture. Of the tenfold dilution 200 μL was placed in an untreated 96-well plate (Falcon, Pasadena Tx.) for an initial optical density (OD) reading at a wavelength of 600 nm. The OD was used to correlate to colony forming units (CFU) per milliliter by using linear regression lines for each organism.

[3] = system: Micrococcus luteus (SK58); test: Carbohydrate Screening Test Method (Biolog phenotype microarray), Bacteria Code E; details: Commensal; carbon microarray plate, OD 600 nm, 36 hr, 33° C.; positive = more than 0.05 OD units above zero; blank cell = not utilized
Source text: as §1, §4
(§5) To do so, the respective microarray data for the 79 carbohydrate sources was run through the GrowthRates 2.1 program to obtain growth parameters, such as growth rates and maximum yield data as described by the Belingham Research Institute, Hall, B. G., H. Acar and M. Barlow. 2014 Growth Rates Made Easy. Mol. Biol. Evol. 31:232-238 doi:10.1093/molbev/mst197. The max yield parameters generated were utilized to calculate ratios of tested commensal bacteria. The ratios calculated were compared back to the desired ratios identified above (Corynebacterium to Staphylococcus of 1.3, Corynebacterium to Micrococcus of 1.4, and Staphylococcus to Micrococcus of 1.1).
(§6) As an example of this methodology used to calculate the commensal bacteria ratios and the difference between the calculated ratios and the desired ratios, an example code from Table 3 will be described. […] The max yields were then used to calculate ratios the bacteria would reach in a co-culture.

[4] = system: Corynebacterium jeikum (ATCC 33033); test: Carbohydrate Screening Test Method (Biolog phenotype microarray), Bacteria Code B
Description: as §1, with “The” for “After creating desired ratios of various commensal skin bacteria in a healthy skin microbiome, 188 different carbohydrate sources were screened as the next step in determining potential prospects for skin microbiota balancing agents. The”
as §4
as §5, with “2014 Growth Rates Made Easy.” left out, “31:232-238 doi:10.1093/molbev/mst197.” left out
as §6
A passage of the culture was made using a sterile swab and streaked onto two M9*2 agar plates to prepare the incubated culture for the phenotype microarray pate according to Table 4.
All cultures were harvested and washed before inoculation into the carbon microarray plate (BiOLOG, Hayward Calif.), with Biolog Plates PM1 and PM2 each having a source definition of Carbon. The bacteria on the M9*2 agar was suspended via agitation with an inoculating loop in 1 mL of M9*1 media for collection in a 1.7 mL micro centrifuge tube, as noted in Table 4.

[5] = Commensal, carbon microarray plate, OD 600 nm, 36 hr, 33° C., positive = more than 0.05 OD units above zero, blank cell = not utilized

| Compound | Carbohydrate Screening Results, Bacteria Code C [1] | Carbohydrate Screening Results, Bacteria Code F [2] | Carbohydrate Screening Results, Bacteria Code E [3] | Carbohydrate Screening Results, Bacteria Code B [4, 5] | Carbohydrate Screening Results, Bacteria Code B ([4]; ATCC33033, 36 h) |
| --- | --- | --- | --- | --- | --- |
| OC[C@@H](O)C(O)[C@H](O)CO [D-Arabitol] | Y | Y |  |  |  |
| CC(O)(CC(=O)O)C(=O)O (centres unmarked) [Citramalic Acid] |  | Y |  |  |  |
| O=C(O)[C@H](O)[C@@H](O)C(=O)O [L-Tartaric Acid] | Y | Y |  |  |  |
| O=C(O)[C@]1(O)C[C@@H](O)[C@@H](O)[C@H](O)C1 [Quinic Acid] | Y | Y |  |  |  |
| O=C[C@H](O)[C@@H](O)[C@@H](O)CO [L-Arabinose] | Y | Y |  |  |  |
| N[C@@H](Cc1c[nH]cn1)C(=O)O [L-Histidine] | Y | Y |  |  |  |
| N[C@H]1C(O)O[C@H](CO)[C@@H](O)[C@@H]1O (stereo partly drawn) [D-Glucosamine] | Y | Y |  |  |  |
| O[C@H]1[C@H](O)[C@@H](O)[C@H](O)[C@@H](O)[C@H]1O [m-Inositol] | Y |  | Y | Y |  |
| COC1OC(CO)C(O)C(O)C1O [α-Methyl-D-Galactoside] | Y |  | Y | Y |  |
| O=C(CO)[C@H](O)[C@H](O)[C@H](O)CO [D-Psicose] | Y | Y | Y | Y |  |
| C[C@H](O)[C@@H](O)[C@@H](O)[C@H](O)C=O [L-Fucose] | Y |  | Y | Y |  |
| CCCCCCCCCC(=O)O [Capric Acid] |  | Y |  |  |  |
| OC[C@@H](O)[C@@H](O)[C@H](O)[C@@H](O)CO [D-Sorbitol] | Y | Y | Y |  |  |
| CO[C@@H]1O[C@H](CO)[C@@H](O)[C@H](O)[C@H]1O [β-Methyl-D-Galactoside] | Y | Y |  |  |  |
| C[C@H](O)[C@H](O)[C@@H](O)[C@@H](O)C=O [L-Rhamnose] | Y |  | Y | Y |  |
| OC[C@H]1O[C@H](OCC2O[C@@H](O)[C@H](O)[C@@H](O)[C@@H]2O)[C@H](O)[C@@H](O)[C@H]1O (stereo partly drawn) [D-Melibiose] | Y | Y | Y | Y |  |

| Compound | Carbohydrate Screening Results, Bacteria Code C [1] | Carbohydrate Screening Results, Bacteria Code F [2] | Carbohydrate Screening Results, Bacteria Code E [3] | Carbohydrate Screening Results, Bacteria Code B [4, 5] | Carbohydrate Screening Results, Bacteria Code B ([4]; ATCC33033, 36 h) |
| --- | --- | --- | --- | --- | --- |
| OC[C@@H](O)[C@@H](O)[C@@H](O)CO [Adonitol] | Y | Y | Y | Y |  |
| NCCc1ccc(O)cc1 [Tyramine] | Y | Y |  | Y |  |
| N[C@@H](CCC(=O)O)C(=O)O [L-Glutamic Acid] |  | Y |  |  | Y |
| O=C1O[C@@H]([C@H](O)CO)[C@H](O)[C@H]1O [D-Galactonic Acid-γ-Lactone] | Y | Y |  |  |  |
| CCCCCC(=O)O [Caproic Acid] |  | Y |  |  |  |
| NC(=O)C[C@H](N)C(=O)O [L-Asparagine] |  | Y |  | Y |  |
| CCCC(=O)O [Butyric Acid] |  | Y |  |  |  |
| O=C1CC[C@@H](C(=O)O)N1 [L-Pyroglutamic Acid] |  | Y |  |  |  |
| O=C[C@H](O)[C@@H](O)[C@H](O)CO [D-Xylose] | Y | Y |  |  |  |
| O=P(O)(O)O[C@H]1O[C@H](CO)[C@@H](O)[C@H](O)[C@H]1O [D-Glucose-1-Phosphate] | Y |  | Y | Y |  |
| Gentiobiose | Y | Y |  |  |  |
| C=C(CC(=O)O)C(=O)O [Itaconic Acid] |  | Y |  |  |  |
| O=C[C@H](O)[C@@H](O)[C@H](O)[C@H](O)C(=O)O [D-Glucuronic Acid] | Y | Y | Y | Y |  |
| O=C1O[C@H]([C@@H](O)CO)[C@@H](O)[C@@H]1O [L-Galactonic Acid-γ-Lactone] | Y |  |  | Y |  |
| OC[C@@H](O)[C@@H](O[C@H]1O[C@H](CO)[C@@H](O)[C@H](O)[C@H]1O)[C@H](O)[C@@H](O)CO [Maltitol] | Y | Y |  |  |  |
